Experimental findings from patent US20030176479A1, “Use of selective EP4 receptor agonists for the treatment of liver failure, loss of patency of the ductus arteriosus, glaucoma or ocular hypertension” (priority 2002, published 2003) are described below.

Structures are written as SMILES.

Details in all cases: displacement of 3H-prostaglandin E2, 293S membranes, 1 hour at 25° C.
One assay addresses T1, rat EP4 receptor (Rattus norvegicus, UniProt P43114).
T1 construct: expressed in transfected cells
The assay can be described thus: Rat EP4 receptor binding assay (3H-PGE2 displacement, 293S cell membranes). An excerpt:
(§1) The compounds of Formula I or II, which are useful in the methods of the present invention, bind to the prostaglandin E2 type 4 receptor (EP4 receptor). The full-length coding sequence for the human EP1 receptor is made in accordance with the procedure in Funk et al., Journal of Biological Chemistry, 1993, 268, 26767-26772. The full-length rat EP2 receptor is made in accordance with the procedure in Nemoto et al., Prostaglandins and other Lipid Mediators, 1997, 54, 713-725. The full-length coding sequence for the human EP3 receptor is made in accordance with the procedure in Regan et al., British Journal of Pharmacology, 1994, 112, 377-385. The full-length coding sequence for the rat EP4 receptor is made in accordance with the procedure in Sando et al., Biochem. Biophys. Res. Comm. 1994, 200,1329-1333. These full-length receptors are used to prepare 293S cells expressing the human EP1, rat EP2, human EP3 or rat EP4 receptors.
(§2) Human EP1, Rat EP2, Human EP3, Rat EP4 Receptor Binding Assay
(§3) The full-length receptors described above are used to prepare 293S cells expressing the EP1, EP2, EP3, and EP4 receptors.
(§4) 293S cells expressing either the human EP1, rat EP2, human EP3 or rat EP4 prostaglandin E2 receptors are generated according to methods known to those skilled in the art. Typically, PCR (polymerase chain reaction) primers corresponding to the 5′ and 3′ ends of the published full length receptor are made according to the well known methods disclosed above and are used in an RT-PCR (reverse transcriptase-polymerase chain reaction) reaction using the total RNA from human kidney (for EP1), rat kidney (for EP2), human lung (for EP3), or rat kidney (EP4) as a source. PCR products are cloned by the TA overhang method into pCR2.1 (Invitrogen Corporation, Carlsbad, Calif.) and identity of the cloned receptor is confirmed by DNA sequencing. For expression of the rat EP2 receptor, the confirmed cDNA is subcloned into the mammalian expression vector PURpCl, a vector generated by subcloning the selectable marker for puromycin resistance into the mammalian expression vector pCl (Promega, Madison, Wis.)
(§5) 293S cells are transfected with either the cloned human EP1 or EP3 receptor in pcDNA3 by electroporation. Stable cell lines expressing either the human EP1 or EP3 receptor are established following selection of transfected cells with G418. 293S cells are transfected with the cloned rat EP2 receptor in PURpCi by lipid mediated transfection. Stable cell lines expressing the rat EP2 receptor are established following selection of transfected cells with puromycin. 293S cells are transfected with the cloned rat EP4 receptor in pcDNA3 by lipid mediated transfection. Stable cell lines expressing the rat EP4 receptor are established following selection of transfected cells with Geneticin® (Invitrogen, Carlsbad, Calif.).
(§6) Clonal cell lines expressing the maximal number of receptors are chosen following a whole cell ^3H-PGE2 binding assay using unlabeled PGE2 as a competitor.
(§7) Membrane Preparation: All operations are performed at 4° C. Transfected cells expressing either prostaglandin E2 type 1, type 2, type 3, or type 4 (EP1, EP2, EP3, or EP4, respectively) receptors are harvested and suspended to 2 million cells per ml in Buffer A [50 mM Tris-HCl (pH 7.4), 10 mM MgCI2, 1 mM EDTA, 1 mM Pefabloc peptide, (Boehringer Mannheim Corp., Indianapolis, Ind.), 10 uM Phosporamidon peptide, (Sigma, St. Louis, Mo.), 1 uM pepstatin A peptide, (Sigma, St. Louis, Mo.), 10 uM elastatinal peptide, (Sigma, St. Louis, Mo.), 100 uM antipain peptide, (Sigma, St. Louis, Mo.)]. The cells are lysed by sonification with a Branson Sonifier (Branson Ultrasonics Corporation, Danbury, Conn.) in 2 fifteen-second bursts. Unlysed cells and debris are removed by centrifugation at 100 ×g for 10 min. Membranes are then harvested by centrifugation at 45,000×g for 30 minutes. […]

The target in another assay is T2, rat EP2 receptor (Rattus norvegicus, UniProt Q62928).
T2 construct: The full-length rat EP2 receptor is made in accordance with the procedure in Nemoto et al; expressed in transfected cells
T2 sequence (Q62928 whole entry): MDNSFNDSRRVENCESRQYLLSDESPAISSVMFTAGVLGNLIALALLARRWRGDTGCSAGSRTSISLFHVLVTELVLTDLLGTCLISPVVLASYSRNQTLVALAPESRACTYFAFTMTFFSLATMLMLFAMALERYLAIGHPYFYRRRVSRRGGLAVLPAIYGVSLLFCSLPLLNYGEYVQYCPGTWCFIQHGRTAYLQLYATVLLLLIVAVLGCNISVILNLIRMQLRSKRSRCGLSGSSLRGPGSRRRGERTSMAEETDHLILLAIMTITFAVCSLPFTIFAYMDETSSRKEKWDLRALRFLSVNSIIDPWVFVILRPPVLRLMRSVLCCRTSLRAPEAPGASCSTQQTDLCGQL
The assay can be described thus: Rat EP2 receptor binding assay (3H-PGE2 displacement, 293S cell membranes).
Text: as §1, §2, §3, §4, §5, §6, §7

A further assay addresses T3, human EP3 receptor (Homo sapiens, UniProt P43115).
T3 construct: expressed in transfected cells
T3 sequence (P43115 1-390): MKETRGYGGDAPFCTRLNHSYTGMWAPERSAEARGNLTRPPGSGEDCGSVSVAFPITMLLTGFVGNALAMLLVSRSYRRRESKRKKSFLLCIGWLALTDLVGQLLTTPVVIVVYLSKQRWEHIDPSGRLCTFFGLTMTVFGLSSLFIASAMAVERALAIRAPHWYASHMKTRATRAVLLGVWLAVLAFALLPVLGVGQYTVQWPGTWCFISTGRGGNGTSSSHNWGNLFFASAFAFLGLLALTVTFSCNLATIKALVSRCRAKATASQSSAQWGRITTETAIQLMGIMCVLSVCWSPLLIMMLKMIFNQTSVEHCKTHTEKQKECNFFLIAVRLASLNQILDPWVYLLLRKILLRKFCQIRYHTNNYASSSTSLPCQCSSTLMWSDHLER
The assay can be described thus: Human EP3 receptor binding assay (3H-PGE2 displacement, 293S cell membranes).
Text: as §1, §2, §3, §4, §5, §6, §7

T1 sequence (P43114 whole entry): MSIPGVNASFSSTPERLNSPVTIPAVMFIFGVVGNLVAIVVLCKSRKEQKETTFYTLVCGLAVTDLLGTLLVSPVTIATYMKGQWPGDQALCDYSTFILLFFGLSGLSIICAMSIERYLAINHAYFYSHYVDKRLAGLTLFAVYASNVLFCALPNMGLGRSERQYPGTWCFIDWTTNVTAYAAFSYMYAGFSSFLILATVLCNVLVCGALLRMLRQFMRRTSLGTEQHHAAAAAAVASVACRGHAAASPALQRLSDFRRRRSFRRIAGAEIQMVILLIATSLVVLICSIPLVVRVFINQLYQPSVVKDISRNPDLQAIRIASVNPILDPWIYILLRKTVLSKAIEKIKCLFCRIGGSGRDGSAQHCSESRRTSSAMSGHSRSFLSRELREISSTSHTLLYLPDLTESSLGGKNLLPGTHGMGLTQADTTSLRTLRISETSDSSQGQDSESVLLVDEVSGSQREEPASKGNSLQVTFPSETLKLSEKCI

For the compound `O=C1CCC(CCC(O)Cc2cccc(-c3ccccc3)c2)N1CCCCCCc1nn[nH]n1` (stereo not drawn) [Example 6, 5-(4-Biphenyl-3-yl-3-hydroxy-butyl)-1-[6-(2H-tetrazol-5-yl)-hexyl]-pyrrolidin-2-one], the values for the IC50 on rat EP4 receptor, on rat EP2 receptor and on human EP3 receptor were 50 nM, 3050 nM and greater than 3200 nM, respectively.
For the compound `O=C(O)CCCCCCN1C(=O)CC[C@@H]1CC[C@@H](O)Cc1cccc(C(F)(F)F)c1` [Example 2, 7-{2S-[3R-hydroxy-4-(3-trifluoromethyl-phenyl)-butyl]-5-oxo-pyrrolidin-1-yl}-heptanoic acid], the IC50 on rat EP4 receptor is 21 nM; at rat EP2 receptor, 2760 nM; at human EP3 receptor it was greater than 3200 nM.
The like results for `O=C1CC[C@H](CCC(O)Cc2cccc(Cl)c2)N1CCCCCCc1nn[nH]n1` (stereo partly drawn) [Example 3, 5S-[4-(3-Chloro-phenyl)-3-hydroxy-butyl]-1-[6-(2H-tetrazol-5-yl)-hexyl]-pyrrolidin-2-one] were, in that order, 38 nM, 2370 nM and greater than 3200 nM.
For `O=C(O)CCCCCCN1C(=O)CCC1CCC(O)Cc1ccccc1` (stereo not drawn) [Example 9, 7-(2-(3-hydroxy-4-phenyl-butyl)-5-oxo-pyrrolidin-1-yl)-heptanoic acid], the IC50 was 54 nM on rat EP4 receptor, greater than 3200 nM on rat EP2 receptor and greater than 3200 nM at human EP3 receptor.
In the case of `O=C(O)CCCCCCN1C(=O)CC[C@@H]1CC[C@@H](O)Cc1cccc(Cl)c1` [Example 1, 7-{2S-[4-(3-Chloro-phenyl)-3R-hydroxy-butyl]-5-oxo-pyrrolidin-1-yl}-heptanoic acid], the IC50 was 22 nM on rat EP4 receptor, greater than 3200 nM on rat EP2 receptor and greater than 3200 nM at human EP3 receptor.
Turning to `O=C1CC[C@H](CC[C@@H](O)Cc2cccc(C(F)(F)F)c2)N1CCCCCCc1nn[nH]n1` [Example 4, 5S-[3R-Hydroxy-4-(3-trifluoromethyl-phenyl)-butyl]-1-[6-(2H-tetrazol-5-yl)-hexyl]-pyrrolidin-2-one], the half-inhibitory concentration (IC50) was 33 nM at rat EP4 receptor, greater than 3200 nM on rat EP2 receptor and greater than 3200 nM on human EP3 receptor.
